# Measurements: patent US10538512B2, “Aminoacylindazole immunomodulators for treatment of autoimmune diseases” (The Rockefeller University, priority 2016, dated 2020)
# Target: T1, Human FXIIa (Homo sapiens, UniProt P00748)
# T1 construct: active coagulation factor XII (FXIIa); purchased Enzyme Research Labs
# T1 sequence (P00748 373-615 limits assumed): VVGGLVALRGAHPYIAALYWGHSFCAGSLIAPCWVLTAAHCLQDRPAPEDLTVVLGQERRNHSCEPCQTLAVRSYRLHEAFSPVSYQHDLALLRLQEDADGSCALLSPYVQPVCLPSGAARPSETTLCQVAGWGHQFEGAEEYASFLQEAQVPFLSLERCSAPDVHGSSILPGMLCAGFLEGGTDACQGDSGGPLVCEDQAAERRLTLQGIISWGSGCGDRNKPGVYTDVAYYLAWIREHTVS
# T1 sequence (P00748 20-372 partner limits assumed): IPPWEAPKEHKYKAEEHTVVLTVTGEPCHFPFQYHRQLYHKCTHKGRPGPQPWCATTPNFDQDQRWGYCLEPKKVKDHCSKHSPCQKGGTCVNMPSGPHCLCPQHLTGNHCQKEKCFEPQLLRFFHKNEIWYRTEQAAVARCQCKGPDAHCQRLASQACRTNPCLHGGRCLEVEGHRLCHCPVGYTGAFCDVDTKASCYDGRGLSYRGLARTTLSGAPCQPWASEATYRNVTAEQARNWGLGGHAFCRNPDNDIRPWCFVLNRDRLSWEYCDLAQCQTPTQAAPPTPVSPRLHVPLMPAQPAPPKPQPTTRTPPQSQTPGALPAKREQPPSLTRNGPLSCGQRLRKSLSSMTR
# Assay: Factor XIIa (FXIIa) inhibitory activity, chromogenic substrate assay
# Format: biochemical
# Settings: Human FXIIa 12.5 nM, Pefachrome XIIa 400 μM, 10 min preincubation
# Procedure: Factor XIIa (FXIIa) Inhibitory Activity:
# In a 96-well clear bottom plate, 80 μl of assay buffer was added to each well. Assay buffer consists of 0.5× Hank's Balanced Salt Solution (Invitrogen), buffered with 25 mM HEPES pH 7.4 (Invitrogen) and 0.5× Tris-buffered saline with Tween-20 0.05% (Santa Cruz Biotechnology). Test compounds were first dissolved in DMSO (Sigma) and then 4 μl were added to test wells containing assay buffer. Serial dilutions using an automated multi-channel pipette were used to generate a concentration range of approximately 1-100 μM. […] 80 μl of this enzyme solution was added to the assay wells. The enzyme/compound mixtures were incubated for 10 minutes at room temperature. Chromogenic substrate (Pefachrome XIIa; Enzyme Research Labs) was added to assay wells at a final concentration of 400 μM. The assay plate was spun for 1 minute at 1500 g and then read at 37° C. in a SpectraMax M2 plate reader (λ=405 nm). Activity was quantified as the rate of change in absorbance, which corresponds to the rate of substrate cleavage.
row,SMILES,IC50 [nM]
1,"Nc1c2c(nn1C(=O)[C@@H]1CCNc3ccc(F)cc31)CC[C@@H](O)C2 (single isomer, unassigned) [Example 130, ((5R*)-3-amino-5-hydroxy-4,5,6,7-tetrahydro-2H-indazol-2-yl)(4(R*)-6-fluoro-1,2,3,4-tetrahydroquinolin-4-yl)methanone]",45000
2,"Nc1c2c(nn1C(=O)[C@H]1CCNc3ccc(F)cc31)CC[C@H](O)C2 (single isomer, unassigned) [Example 133, ((5S*)-3-amino-5-hydroxy-4,5,6,7-tetrahydroindazol-2-yl)((4S*)-6-fluoro-1,2,3,4-tetrahydroquinolin-4-yl)methanone]",33000
3,"COc1ccc2c(c1)NCCC2C(=O)n1nc2c(c1N)CCCC2 (centres unmarked) [Example 110, (3-amino-4,5,6,7-tetrahydroindazol-2-yl)(7-methoxy-1,2,3,4-tetrahydroquinolin-4-yl)methanone]",250
4,"COc1ccc2c(c1)NCCC2C(=O)n1nc(N)c2c1CCCC2 (centres unmarked) [Example 111, (3-amino-4,5,6,7-tetrahydroindazol-1-yl)(7-methoxy-1,2,3,4-tetrahydroquinolin-4-yl)methanone]",> 100000
5,"Nc1c2c(nn1C(=O)C1CCNc3cc(F)ccc31)CCCC2 (centres unmarked) [Example 115, (3-amino-4,5,6,7-tetrahydroindazol-2-yl)(7-fluoro-1,2,3,4-tetrahydroquinolin-4-yl)methanone]",400
6,"Cc1cccc2c1NCCC2C(=O)n1nc2c(c1N)C=CCC2 (single isomer, unassigned) [Example 194, (R*)-(3-amino-6,7-dihydroindazol-2-yl)(8-methyl-1,2,3,4-tetrahydroquinolin-4-yl)methanone]",7000
7,"Nc1c2c(nn1C(=O)C1CCCc3[nH]c(Cl)cc31)CCCC2 (single isomer, unassigned) [Example 107, (R*)-(3-amino-4,5,6,7-tetrahydro-2H-indazol-2-yl)(2-chloro-4,5,6,7-tetrahydro-1H-indol-4-yl)methanone]",8000
8,"CCc1cc2c(C(=O)n3nc(N)c4c3CCCC4)ccnc2[nH]1 [Example 114, (3-amino-4,5,6,7-tetrahydro-1H-indazol-1-yl)(2-ethyl-1H-pyrrolo[2,3-b]pyridin-4-yl)methanone]",> 100000
9,"Nc1c2c(nn1C(=O)C1CCNc3cc(C(F)(F)F)ccc31)CCCC2 (centres unmarked) [Example 105, (3-amino-4,5,6,7-tetrahydro-2H-indazol-2-yl)(7-(trifluoromethyl)-1,2,3,4-tetrahydroquinolin-4-yl)methanone]",1800
10,"Cc1cccc2c1NCC[C@@H]2C(=O)n1nc2c(c1N)C[C@@H](N)CC2 (relative stereo) [Example 213, ((5S*)-3,5-diamino-4,5,6,7-tetrahydroindazol-2-yl)((4S*)-8-methyl-1,2,3,4-tetrahydroquinolin-4-yl)methanone]",60
11,"CCc1cc2c([nH]1)CCCC2C(=O)n1nc2c(c1N)CCCC2 (centres unmarked) [Example 82, (3-amino-4,5,6,7-tetrahydroindazol-2-yl)(2-ethyl-4,5,6,7-tetrahydro-1H-indol-4-yl)methanone]",40
12,Cc1ccc2c(c1)N(C)CCC2C(=O)n1nc2c(c1N)CCCC2 (centres unmarked) [Example 163],1500
13,"Nc1nn(C(=O)[C@H]2CCNc3ccc(Cl)cc32)c2c1C[C@H](O)CC2 (single isomer, unassigned) [Example 150, ((5R*)-3-amino-5-hydroxy-4,5,6,7-tetrahydroindazol-1-yl)((4S*)-6-chloro-1,2,3,4-tetrahydroquinolin-4-yl)methanone]",23000
14,"Nc1c2c(nn1C(=O)C1CCNc3ccccc31)CCCC2 (single isomer, unassigned) [Example 78, (R*)-(3-amino-4,5,6,7-tetrahydroindazol-2-yl)(1,2,3,4-tetrahydroquinolin-4-yl)methanone]",150
15,"Cc1cccc2c1NCC[C@H]2C(=O)n1nc(N)c2c1C[C@H](O)CC2 (single isomer, unassigned) [Example 202, ((6R*)-3-amino-6-hydroxy-4,5,6,7-tetrahydroindazol-1-yl)((4R*)-8-methyl-1,2,3,4-tetrahydroquinolin-4-yl)methanone]",> 175000
16,"Cc1cccc2c1NCCC2C(=O)n1nc2c(c1N)C=CCC2 (single isomer, unassigned) [Example 195, (S*)-(3-amino-6,7-dihydroindazol-2-yl)(8-methyl-1,2,3,4-tetrahydroquinolin-4-yl)methanone]",40
17,"Nc1nn(C(=O)[C@H]2CCNc3ccc(F)cc32)c2c1C[C@H](O)CC2 (relative stereo) [Example 131, ((5R*)-3-amino-5-hydroxy-4,5,6,7-tetrahydro-2H-indazol-1-yl)((4S*)-6-fluoro-1,2,3,4-tetrahydroquinolin-4-yl)methanone]",> 90000
18,"Nc1c2c(nn1C(=O)[C@@H]1CCNc3ccc(F)cc31)CC[C@@H](F)C2 (single isomer, unassigned) [Example 138, ((5R*)-3-amino-5-fluoro-4,5,6,7-tetrahydroindazol-2-yl)((4R*)-6-fluoro-1,2,3,4-tetrahydroquinolin-4-yl)methanone]",16000
19,"Cc1csc(C)c1C(=O)n1nc2c(c1N)CCCC2 (single isomer, unassigned) [Example 16, (3-Amino-4,5,6,7-tetrahydroindazol-2-yl)(2,4-dimethylthiophen-3-yl)methanone]",15000
20,"Nc1c2c(nn1C(=O)[C@@H]1CCNc3c(Cl)cccc31)CC[C@H](N)C2 (relative stereo) [Example 216, ((4R*)-8-chloro-1,2,3,4-tetrahydroquinolin-4-yl)((5S*)-3,5-diamino-4,5,6,7-tetrahydroindazol-2-yl)methanone]",3000
21,"Nc1c2c(nn1C(=O)c1ccnc3cc(Cl)ccc13)CCCC2 [Example 123, (3-amino-4,5,6,7-tetrahydro-2H-indazol-2-yl)(7-chloroquinolin-4-yl)methanone]",2500
22,"Nc1c2c(nn1C(=O)C1CCNc3ccc(F)cc31)CCC(F)(F)C2 (single isomer, unassigned) [Example 174, (R*)-(3-amino-5,5-difluoro-4,5,6,7-tetrahydroindazol-2-yl)(6-fluoro-1,2,3,4-tetrahydroquinolin-4-yl)methanone]",> 80000
23,"COC1CCc2nn(C(=O)c3cccc4[nH]c(C)cc34)c(N)c2C1 (centres unmarked) [Example 119, (3-amino-5-methoxy-4,5,6,7-tetrahydro-2H-indazol-2-yl)(2-methyl-1H-indol-4-yl)methanone]",50
24,"Cn1cc2c(n1)CCCC2C(=O)n1nc2c(c1N)CCCC2 (centres unmarked) [Example 88, (3-amino-4,5,6,7-tetrahydroindazol-2-yl)(2-methyl-4,5,6,7-tetrahydro-2H-indazol-4-yl)methanone]",850
25,"Nc1nn(C(=O)[C@H]2CCNc3ccc(F)cc32)c2c1C[C@@H](O)CC2 (single isomer, unassigned) [Example 135, ((5S*)-3-amino-5-hydroxy-4,5,6,7-tetrahydro-1H-indazol-1-yl)((4S*)-6-fluoro-1,2,3,4-tetrahydroquinolin-4-yl)methanone]",24000
26,"Cn1c(Cl)cc2c1CCCC2C(=O)n1nc2c(c1N)CCCC2 (centres unmarked) [Example 112, (3-amino-4,5,6,7-tetrahydroindazol-2-yl)(2-chloro-1-methyl-4,5,6,7-tetrahydro-1H-indol-4-yl)methanone]",180
